Earlier results as cited in patent US20240293435A1, “Methods and Compositions for Treating Human Disorders Using D-Cycloserine and a Psychedelic Agent” (William & Mary, priority 2023, published 2024).

Key:
[1] = system: Mycobacterium tuberculosis strains; details: typical Mycobacterium tuberculosis strains

N[C@@H]1CON=C1O [DCS, 3-Isoxazolidinone, 4-amino-, (4R)-(9CI)]
serum concentrations generally maintained (dose of 500 mg/day, chronic treatment): 25000 to 30000 ng/mL
half-life (oral capsules): 10 h
time to peak serum concentrations after dosing (oral capsules): 3 to 8 h
minimum inhibitory concentrations (MIC) in vitro [1]: 6 to 25 µg/mL
benefit on Alzheimer's Disease (Alzheimer's Disease; daily administration of 100 mg (Tsai et al. 1999)): positive benefit
benefit for treatment of Alzheimer's Disease (Alzheimer's Disease; up to 50 mg daily dosing, multi-center 410-patient trial (Fakouhi et al. 1995)): did not have a significant benefit
